Assay results as given in PMC8222713, “Variation of Two S3b Residues in KV4.1–4.3 Channels Underlies Their Different Modulations by Spider Toxin κ-LhTx-1” (Frontiers in Pharmacology, 2021).
Where a SMILES comes first, the peptide text is derived from it. Bridges are numbered along the chain shown (N, C = ends).

How the values were obtained:
KV3.1 channel (hKV3.1) = assay: Whole-cell patch clamp selectivity, KV3.1; format: cell-based, human; conditions: KV3.1, 10 µM, n = 5
Protocol: (§1) The cDNA of hKV1.1, hKV1.3, rKV1.4, hKV1.5, rKV2.1, hKV3.1–3.4, mKV4.1, rKV4.2, and rKV4.3 were subcloned in the eukaryotic expression vector pCDNA3.1 or pCMV-blank. Channel mutants were made by a site-directed mutation method. Briefly, a pair of oppositely directed primers with 15 bp overlap at their 5′ ends and the designed mutation site were used to amplify the parental channel plasmid, then the PCR mix was treated with DpnI to remove the template. 10 μL digestion mix was directly used to transform 100 μL DH5α chemical competent cells. The correct mutation made by this procedure was finally confirmed by DNA sequencing. […] 4–6 h after transfection, cells were seeded onto poly-lysine (PLL) coated coverslips, and 24–36 h later, transfected cells were ready for patch-clamp analysis. […]
(§2) Whole-cell patch clamp recording was performed in an electrophysiology platform equipped with MultiClamp 700B amplifier and Axon Digidata 1550 AD/DA convertor (Axon Instruments, Irvine, CA, United States). […] The whole cell conductance (G) at each depolarizing voltage (V) was determined using the equation: G = I/(V−Vrev), where I and Vrev represents the current amplitude and the reversal potential, respectively. In the present study, Vrev for K^+ current is determined to be −85.61 mV using the Nernst equation. […] Gating currents of KV4.1–4.3 channels were measured as previously reported ([Tilley et al., 2019]). […]

KV4.1/V281M mutant = assay: Whole-cell patch clamp, KV4.1/V281M in CHO-K1 cells; format: cell-based, mouse; conditions: +30 mV, n = 5
Protocol: as §1, §2

[1] = test system: KV4.1/280VMTN chimeric channel; assay: Whole-cell patch clamp, KV4.1/280VMTN chimera in CHO-K1 cells; format: cell-based, mouse; conditions: mean ± SEM
Protocol: (§3) The cDNA of hKV1.1, hKV1.3, rKV1.4, hKV1.5, rKV2.1, hKV3.1–3.4, mKV4.1, rKV4.2, and rKV4.3 were subcloned in the eukaryotic expression vector pCDNA3.1 or pCMV-blank. Channel mutants were made by a site-directed mutation method. Briefly, a pair of oppositely directed primers with 15 bp overlap at their 5′ ends and the designed mutation site were used to amplify the parental channel plasmid, then the PCR mix was treated with DpnI to remove the template. 10 μL digestion mix was directly used to transform 100 μL DH5α chemical competent cells. The correct mutation made by this procedure was finally confirmed by DNA sequencing. CHO-K1 cells (ATCC® CCL-61™) were grown in DMEM-F12 mixed medium (1:1) supplemented with 10% FBS and maintained in standard conditions (saturated humidity, 37°C, 5% CO2). Channel plasmid was co-transfected with pEGFP-N1 (encodes the green fluoresence protein) into CHO-K1 cells using lipofectamine 2000 following the manufacturer’s instructions. 4–6 h after transfection, cells were seeded onto poly-lysine (PLL) coated coverslips, and 24–36 h later, transfected cells were ready for patch-clamp analysis. It should be note that KV4.2 and its mutants were also co-expressed with hKChIP1 to promote their functional expressions.
(§4) Whole-cell patch clamp recording was performed in an electrophysiology platform equipped with MultiClamp 700B amplifier and Axon Digidata 1550 AD/DA convertor (Axon Instruments, Irvine, CA, United States). Data were acquired using the pClamp software (Axon Instruments, Irvine, CA, United States). All experiments were performed at room temperature. The bath solution contains (in mM): 140 NaCl, 5 KCl, 1 MgCl2, 2 CaCl2, 10 glucose, and 10 HEPES (pH = 7.3). The pipette solution contains (in mM): 140 KCl, 2.5 MgCl2, 11 EGTA, and 10 HEPES (pH = 7.3). Series resistance was kept below 10 MΩ and compensated to 80%. The concentration–response curves were fitted by a Hill logistic equation to estimate the potency (IC50) of the toxin. The whole cell conductance (G) at each depolarizing voltage (V) was determined using the equation: G = I/(V−Vrev), where I and Vrev represents the current amplitude and the reversal potential, respectively. In the present study, Vrev for K^+ current is determined to be −85.61 mV using the Nernst equation. G-V curve was obtained by plotting the normalized G as a function of V and fitted by the Boltzmann equation: y = 1/{1 + exp [(Va−V)/K]}, in which Va, V, and K represents half-maximum activation voltage, test voltage and slope factor, respectively. The steady-state fast inactivation of KV4 channels was measured using a classical two-pulses protocol: cell was held at −120 mV, and a train of conditional voltages (−120–40 mV, in 10 mV increment, 1,000 ms) were applied to induce channel inactivation, followed by a +60 mV test pulse (300 ms) to assess the proportion of non-inactivated channels; the sweep interval was set to 10 s. Currents at the test pulse (I) were normalized to the maximum value (Imax) and plotted as a function of the conditional voltage (V), the curve was fitted by the Boltzmann equation: I/Imax = A + (1−A)/{1 + exp [(V−Vh)/K]}, where Vh is the half-maximum inactivation voltage, A represents the minimum channel availability, and K is the slope factor. Gating currents of KV4.1–4.3 channels were measured as previously reported ([Tilley et al., 2019]). Briefly, the ionic pore currents were abolished by replacing K^+ with NMDG^+ in the pipette solution, and 10 µM Cs^+ was present in the bath solution to occupy the selectivity filter of KV channels to prevent decay of the gating currents during recording.
(§5) Data were presented as MEAN ± SEM, n represents the number of separate experimental cells. Data were analyzed using the software Clampfit 10.5 (Axon Instruments, Irvine, CA, United States), Graphpad Prism 5.01 (GraphPad Software, La Jolla, CA, United States) and Excel 2010 (Microsoft Corporation, Redmond, WA, United States). […]

KV4.2 channel (rKV4.2) = molecular target: T1, KV4.2 channel (rKV4.2) (Rattus norvegicus, UniProt Q63881); assay: Whole-cell patch clamp, KV4.2 (with hKChIP1) in CHO-K1 cells; format: cell-based
T1 construct: expressed in transfected cells; host or cells: CHO-K1 (transient, co-transfected with pEGFP-N1 and hKChIP1)
T1 sequence (Q63881 1-630): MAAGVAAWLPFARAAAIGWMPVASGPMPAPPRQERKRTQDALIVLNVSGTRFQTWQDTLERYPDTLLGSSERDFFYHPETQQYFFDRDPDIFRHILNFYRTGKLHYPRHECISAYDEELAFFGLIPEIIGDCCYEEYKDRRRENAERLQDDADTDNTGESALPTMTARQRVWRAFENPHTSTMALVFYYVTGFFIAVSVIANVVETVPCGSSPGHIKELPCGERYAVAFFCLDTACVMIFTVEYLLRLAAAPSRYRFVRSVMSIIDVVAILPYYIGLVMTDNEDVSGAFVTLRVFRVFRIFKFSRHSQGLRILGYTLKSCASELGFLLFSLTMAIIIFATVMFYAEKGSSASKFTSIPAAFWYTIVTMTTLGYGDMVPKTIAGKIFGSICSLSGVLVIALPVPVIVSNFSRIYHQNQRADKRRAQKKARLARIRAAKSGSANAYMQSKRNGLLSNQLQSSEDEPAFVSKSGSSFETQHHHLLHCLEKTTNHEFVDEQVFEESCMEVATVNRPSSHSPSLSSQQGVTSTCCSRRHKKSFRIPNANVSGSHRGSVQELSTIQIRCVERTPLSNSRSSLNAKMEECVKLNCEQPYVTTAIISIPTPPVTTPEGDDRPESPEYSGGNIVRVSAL
T1 sequence (Q9NZI2 1-227 partner): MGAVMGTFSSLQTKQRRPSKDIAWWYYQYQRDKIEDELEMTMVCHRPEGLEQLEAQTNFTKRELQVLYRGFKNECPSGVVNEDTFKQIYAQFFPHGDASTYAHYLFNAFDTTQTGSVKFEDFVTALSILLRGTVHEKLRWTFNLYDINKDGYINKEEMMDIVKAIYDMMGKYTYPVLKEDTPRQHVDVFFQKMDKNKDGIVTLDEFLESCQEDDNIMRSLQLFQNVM
Protocol: as §3, §4, §5

[2] = 10 μM κ-LhTx-1, two-pulse protocol, n = 5
[3] = 10 μM κ-LhTx-1, KV4.2, G-V, mean ± SEM, n = 8
[4] = 10 μM κ-LhTx-1, KV4.2, two-pulse protocol, mean ± SEM, n = 6

CC[C@H](C)[C@@H]1NC(=O)[C@H](CCC(N)=O)NC(=O)[C@@H]2CSSC[C@@H]3NC(=O)[C@H](CC(C)C)NC(=O)[C@H](CC(N)=O)NC(=O)[C@H](CCSC)NC(=O)[C@H](Cc4c[nH]c5ccccc45)NC(=O)[C@H](CO)NC(=O)[C@H](C)NC(=O)[C@@H](NC(=O)[C@H](CCC(=O)O)NC(=O)[C@H](CCC(N)=O)NC(=O)[C@H](C)NC(=O)[C@H](CC(=O)O)NC(=O)[C@@H](N)CCC(=O)O)CSSC[C@H](NC(=O)[C@H](CSSC[C@@H](C(=O)N[C@@H](CCCCN)C(=O)N[C@@H](Cc4ccc(O)cc4)C(=O)N[C@@H](CCCCN)C(=O)N[C@@H](CC(C)C)C(N)=O)NC(=O)[C@H](Cc4c[nH]c5ccccc45)NC1=O)NC(=O)[C@H](CCCCN)NC(=O)[C@H](CCCCN)NC(=O)[C@H](CCC(=O)O)NC(=O)CNC3=O)C(=O)N[C@@H](CCC(=O)O)C(=O)NCC(=O)N[C@@H](Cc1ccc(O)cc1)C(=O)N[C@@H](C(C)C)C(=O)N2 [κ-LhTx-1] (H-EDAQECASWMNLCGEKKCCEGYVCQIWCKYKL-NH2; disulfide 6-19, 13-24, 18-28 (inferred); N-terminus and C-terminus assumed)
effect on currents (KV3.1 channel (hKV3.1)): did not remarkably affect the currents
potency vs wild-type KV4.1 (KV4.1/V281M mutant): only slightly reduced κ-LhTx-1 potency
Va (steady-state activation) ([1]; 10 μM κ-LhTx-1, G-V, n = 5): 58.61 ± 1.63 mV
k, slope factor (steady-state activation) ([1]; 10 μM κ-LhTx-1, G-V, n = 5): 19.00 ± 0.81 mV
Vh (steady-state inactivation) [1, 2]: -44.55 ± 2.07 mV
k, slope factor (steady-state inactivation) [1, 2]: 9.86 ± 1.33 mV
∆Va (steady-state activation) ([1]; Va shift by 10 μM κ-LhTx-1 vs control): 61.44 ± 1.98 mV
∆Vh (steady-state inactivation) ([1]; Vh shift by 10 μM κ-LhTx-1 vs control): 13.52 ± 2.24 mV
inhi%(min) ([1]; inhibition ratio at +100 mV, 10 μM): −2.82 ± 3.37%
Va (steady-state activation) (KV4.2 channel (rKV4.2); [3]): 30.24 ± 1.82 mV
k, slope factor (steady-state activation) (KV4.2 channel (rKV4.2); [3]): 21.99 ± 0.42 mV
Vh (steady-state inactivation) (KV4.2 channel (rKV4.2); [4]): -69.67 ± 1.87 mV
k, slope factor (steady-state inactivation) (KV4.2 channel (rKV4.2); [4]): 7.22 ± 0.26 mV
reversibility of inhibition (KV4.2 channel (rKV4.2); KV4.2): in a reversible manner
voltage-dependence of inhibition (KV4.2 channel (rKV4.2); KV4.2, 10 µM, inhibition ratio at each depolarizing voltage, n = 5–8): decreased quickly with the increment of the depolarizing voltage
I-V relationship shift (KV4.2 channel (rKV4.2); KV4.2, 10 µM, n = 5–8): only a small shift
current inhibition at Va (KV4.2 channel (rKV4.2); KV4.2 at Va depolarizing voltage): almost fully inhibited
∆Va (steady-state activation) (KV4.2 channel (rKV4.2); Va shift by 10 μM κ-LhTx-1 vs control, KV4.2, mean ± SEM): 39.52 ± 2.55 mV
